Experiment [1] can be described thus: Concentration-dependent survival of SW480 colon cancer line, luminescence detection with CellTiter-Glo, half-maximal inhibitory concentration (AID 1117338). Format: functional. For orientation: In ATP-based viability assays light output follows the ATP content of the culture.
A short description of experiment [2]: RKO cell viability reduction, dose response, CellTiter-Glo luminescence (AID 1117322). Format: functional.
Experiment [3] can be described thus: cytotoxicity toward HCT116 cells – cell-based, CellTiter-Glo luminescence, IC50, dose response (AID 1117332). Format: functional. Particulars: HCT-116.
Experiment [4] in a line: SNU-C1 cell viability reduction, dose response, CellTiter-Glo luminescence (AID 1117323). Format: functional, cell-based.
Experiment [5] in a line: cytotoxicity toward Colo320 cells – cell-based, CellTiter-Glo luminescence, IC50, dose response (AID 1117334). The format is functional. The note with it: COLO 320.
Experiment [6] in a line: cytotoxicity toward HT-29 cells – cell-based, CellTiter-Glo luminescence, IC50, dose response (AID 1117330). The format is functional.
Experiment [7] in a line: CellTiter-Glo luminescent dose response of DLD-1 viability loss (AID 1117352). Format: functional.
Experiment [8] can be described thus: HCT116 cell viability decrease, GSK3B pretreatment – CellTiter-Glo, IC50, dose response (AID 1117339). Format: functional. Particulars: HCT-116.
The target in experiment [9] is G-protein coupled receptor 183 (Homo sapiens, UniProt P32249). In words: SAR confirmation of small molecule antagonists of the EBI2 receptor via a luminescent beta-arrestin assa. The format is functional.
Experiment [10] addresses T1, Estrogen receptor (Homo sapiens, UniProt P03372).
T1 sequence (P03372 whole entry): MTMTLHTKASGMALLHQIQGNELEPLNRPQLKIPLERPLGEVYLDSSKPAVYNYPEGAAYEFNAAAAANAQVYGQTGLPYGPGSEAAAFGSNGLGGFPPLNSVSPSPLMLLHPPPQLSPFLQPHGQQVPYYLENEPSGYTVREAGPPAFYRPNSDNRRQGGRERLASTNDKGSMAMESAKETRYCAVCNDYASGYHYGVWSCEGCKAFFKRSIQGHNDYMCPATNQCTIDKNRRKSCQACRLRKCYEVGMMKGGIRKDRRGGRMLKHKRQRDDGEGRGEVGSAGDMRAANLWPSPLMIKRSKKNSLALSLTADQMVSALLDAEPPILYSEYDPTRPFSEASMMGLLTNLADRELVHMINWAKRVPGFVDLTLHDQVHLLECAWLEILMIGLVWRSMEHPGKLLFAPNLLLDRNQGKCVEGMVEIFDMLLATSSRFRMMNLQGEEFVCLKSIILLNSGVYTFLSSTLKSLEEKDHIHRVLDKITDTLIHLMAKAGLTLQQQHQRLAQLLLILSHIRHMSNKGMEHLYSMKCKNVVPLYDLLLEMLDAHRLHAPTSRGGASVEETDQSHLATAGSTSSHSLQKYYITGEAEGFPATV

Experiment [11] has as its target Peroxisome proliferator-activated receptor gamma/Nuclear receptor corepressor 2 (Homo sapiens, UniProt P37231+Q9Y618). The experiment in a line: Counterscreen for NR2E3 inverse agonists: TR-FRET-based biochemical high throughput dose response assay to identify inverse agonists of the interaction between peroxisome proliferator-activated receptor gamma (PPARg) and nuclear receptor co-repressor 2 (NCOR2). The format is functional. (In general: Counterscreens check selectivity or assay interference.)

In experiment [12] the target is Photoreceptor-specific nuclear receptor (Homo sapiens, UniProt Q9Y5X4). In words: NR2E3 inverse agonists, dose response, biochemical, TR-FRET (AID 463256). The format is functional. A general note: Time-resolved FRET reads energy transfer from a long-lived donor to a nearby acceptor.
Experiment [13] can be described thus: P. falciparum Dd2 growth inhibitors, dose response, SYBR Green, cherry-picked samples (AID 1159567). The format is functional, cell-based.
Experiment [14] can be described thus: HepG2 cell cytotoxicity, dose response, cytotoxicity control, cherry-picked samples (AID 1159577). Format: functional, cell-based.
For experiment [15], the target named is T2, NADPH oxidase 1 (Homo sapiens, UniProt Q9Y5S8). In words: Late stage results from the probe development effort to identify inhibitors of NOX1: HEK/293 IC50. [Related pubchem assays: 1796 (Summary AID (NOX1)), 2752 (Primary screen (NOX1 inhibitors, synthesized analogs set 2)), 2664 (Primary screen (NOX1 inhibitors, synthesized analogs)), 1792 (Primary Screen (NOX1)), 2545 (Confirmation screen (NOX1 …. Format: functional.

In experiment [16] the target is T2, NADPH oxidase 1. In words: NOX1 inhibitors, concentration-response, dose response, cell-based, luminescence, cherry picks 2 (AID 434997). The format is functional.
The subject of experiment [17] is Streptococcus sp. 'group A'. In words: growth inhibition of control SK(-) GAS strain, dose response, counter-screen for streptokinase expression inhibitor project, luminescence, kanamycin, BacTiterGlo, confirmation (AID 1900). The format is functional, organism-based.
Experiment [18] addresses T3, Streptokinase A (Streptococcus pyogenes serotype M1, UniProt P10520).
T3 sequence (P10520 whole entry): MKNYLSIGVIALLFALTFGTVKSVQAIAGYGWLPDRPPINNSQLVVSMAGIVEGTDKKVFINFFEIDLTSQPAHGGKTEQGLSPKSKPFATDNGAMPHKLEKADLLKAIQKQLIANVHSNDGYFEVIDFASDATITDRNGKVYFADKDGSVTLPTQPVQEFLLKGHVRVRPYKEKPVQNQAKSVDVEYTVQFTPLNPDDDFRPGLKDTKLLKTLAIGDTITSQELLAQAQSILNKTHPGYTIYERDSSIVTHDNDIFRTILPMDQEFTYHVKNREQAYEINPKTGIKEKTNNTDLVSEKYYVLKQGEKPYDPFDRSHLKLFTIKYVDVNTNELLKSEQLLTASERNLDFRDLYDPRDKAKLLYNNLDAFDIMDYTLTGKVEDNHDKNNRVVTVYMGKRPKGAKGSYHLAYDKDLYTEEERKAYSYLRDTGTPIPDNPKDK
The experiment in a line: S. pyogenes streptokinase expression inhibitors, potency, dose response, plasminogen activation absorbance, OD405 (AID 1914).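 Further: secreted streptokinase activity via plasminogen activation per viability signal from cell pellet.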 Format: functional, Streptococcus pyogenes M1 GAS.

The subject of experiment [19] is Streptococcus. The experiment in a line: Group A Streptococcus viability loss, dose response, counter-screen for streptokinase expression inhibitor project, luminescence, BacTiterGlo (AID 1915).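 Further: potency for reduction of bacterial viability or growth.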 The format is functional, organism-based.
Experiment [20] addresses Nonstructural protein 1 (Influenza A virus, UniProt Q194T2). The format is functional, Influenza A virus (A/California/07/2009(H1N1)).
A short description of experiment [21]: HEK293T cell cytotoxicity, dose response, cytotoxicity control, CellTiter-Glo luminescence, dry powder, set 2 (AID 720595). Format: functional, cell-based. The note with it: HEK293.
Experiment [22] in a line: HeLa cell cytotoxicity, dose response, cytotoxicity control, CellTiter-Glo luminescence, dry powder, set 2 (AID 720593). Format: functional, cell-based.
For experiment [23], the target named is T4, Voltage-gated inwardly rectifying potassium channel KCNH2 (Homo sapiens, UniProt Q12809). In words: concentration dependence of hERG rescue from dofetilide, dose response, manual patch clamp, HEK293 cells (AID 2638). The format is ADME.
Experiment [24] concerns the target T4, Voltage-gated inwardly rectifying potassium channel KCNH2. The experiment in a line: hERG protection from proarrhythmic block, potency, dose response, cell-based, thallium flux (AID 2121). The format is ADME.
Experiment [25] deals with Ephrin type-A receptor 4 (Mus musculus, UniProt Q03137). In words: inhibitors of EphA4 binding to KYL peptide, primary screen, biochemical, colorimetric, mouse EphA4 (AID 689). The format is functional.
Experiment [26] relates to Vero. The experiment in a line: host cell cytotoxicity of antiviral hits, dose response, cytotoxicity control for West Nile virus antiviral project, secondary assay (AID 1650). Format: functional. Particulars: Chlorocebus sabaeus.
Experiment [27] concerns the target Bifunctional protein GlmU (Mycobacterium tuberculosis, UniProt P9WMN3). The experiment in a line: Inhibitors of Mycobacterial Glucosamine-1-phosphate acetyl transferase (GlmU). Secondary screen. Further details: species or system Mycobacterium tuberculosis H37Rv.
Experiment [28] addresses Dual specificity tyrosine-phosphorylation-regulated kinase 1A (Rattus norvegicus, UniProt Q63470). The format is biochemical, Homo sapiens.
In experiment [29] the target is T5, Heat shock factor protein 1 (Mus musculus, UniProt P38532).
T5 sequence (P38532 whole entry): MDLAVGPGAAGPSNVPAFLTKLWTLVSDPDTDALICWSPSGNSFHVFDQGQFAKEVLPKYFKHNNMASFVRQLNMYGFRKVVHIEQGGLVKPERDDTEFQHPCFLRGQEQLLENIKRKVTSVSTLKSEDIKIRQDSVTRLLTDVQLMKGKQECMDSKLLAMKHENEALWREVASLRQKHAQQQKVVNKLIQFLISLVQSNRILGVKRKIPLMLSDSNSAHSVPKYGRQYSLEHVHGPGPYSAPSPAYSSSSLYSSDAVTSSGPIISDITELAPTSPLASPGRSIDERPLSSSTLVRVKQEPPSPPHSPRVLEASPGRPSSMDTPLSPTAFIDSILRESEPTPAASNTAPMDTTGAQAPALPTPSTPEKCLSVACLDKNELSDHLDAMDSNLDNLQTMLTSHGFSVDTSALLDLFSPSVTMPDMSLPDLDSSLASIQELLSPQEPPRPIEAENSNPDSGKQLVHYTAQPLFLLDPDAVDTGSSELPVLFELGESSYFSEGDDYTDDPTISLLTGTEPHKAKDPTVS
The experiment in a line: inhibition of MG132-induced HSE-luciferase signal, confirmation, cell-based, NIH3T3, luminescence, dose retest (AID 2382).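 Further: NIH3T3 fibroblasts with HSF1-driven luciferase reporter stressed by proteasome inhibitor MG132; luminescence from HSF1-driven luciferase expression after 8 hours of MG132 stress.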 The format is functional.

In experiment [30] the target is 5-hydroxytryptamine receptor 1A (Homo sapiens, UniProt P08908). Format: functional.
For experiment [31], the target named is Heat shock protein HSP 90-alpha (Homo sapiens, UniProt P07900). The experiment in a line: Luminescence-based dose response biochemical high throughput screening assay for inhibitors of the Heat Shock Protein 90 (HSP90). [Related pubchem assays: 1831 (Summary AID.), 1846 (Confirmation screen.), 1789 (Primary screen.)].

Calls of active or inactive are those of the source.

T4 sequence (Q12809 whole entry): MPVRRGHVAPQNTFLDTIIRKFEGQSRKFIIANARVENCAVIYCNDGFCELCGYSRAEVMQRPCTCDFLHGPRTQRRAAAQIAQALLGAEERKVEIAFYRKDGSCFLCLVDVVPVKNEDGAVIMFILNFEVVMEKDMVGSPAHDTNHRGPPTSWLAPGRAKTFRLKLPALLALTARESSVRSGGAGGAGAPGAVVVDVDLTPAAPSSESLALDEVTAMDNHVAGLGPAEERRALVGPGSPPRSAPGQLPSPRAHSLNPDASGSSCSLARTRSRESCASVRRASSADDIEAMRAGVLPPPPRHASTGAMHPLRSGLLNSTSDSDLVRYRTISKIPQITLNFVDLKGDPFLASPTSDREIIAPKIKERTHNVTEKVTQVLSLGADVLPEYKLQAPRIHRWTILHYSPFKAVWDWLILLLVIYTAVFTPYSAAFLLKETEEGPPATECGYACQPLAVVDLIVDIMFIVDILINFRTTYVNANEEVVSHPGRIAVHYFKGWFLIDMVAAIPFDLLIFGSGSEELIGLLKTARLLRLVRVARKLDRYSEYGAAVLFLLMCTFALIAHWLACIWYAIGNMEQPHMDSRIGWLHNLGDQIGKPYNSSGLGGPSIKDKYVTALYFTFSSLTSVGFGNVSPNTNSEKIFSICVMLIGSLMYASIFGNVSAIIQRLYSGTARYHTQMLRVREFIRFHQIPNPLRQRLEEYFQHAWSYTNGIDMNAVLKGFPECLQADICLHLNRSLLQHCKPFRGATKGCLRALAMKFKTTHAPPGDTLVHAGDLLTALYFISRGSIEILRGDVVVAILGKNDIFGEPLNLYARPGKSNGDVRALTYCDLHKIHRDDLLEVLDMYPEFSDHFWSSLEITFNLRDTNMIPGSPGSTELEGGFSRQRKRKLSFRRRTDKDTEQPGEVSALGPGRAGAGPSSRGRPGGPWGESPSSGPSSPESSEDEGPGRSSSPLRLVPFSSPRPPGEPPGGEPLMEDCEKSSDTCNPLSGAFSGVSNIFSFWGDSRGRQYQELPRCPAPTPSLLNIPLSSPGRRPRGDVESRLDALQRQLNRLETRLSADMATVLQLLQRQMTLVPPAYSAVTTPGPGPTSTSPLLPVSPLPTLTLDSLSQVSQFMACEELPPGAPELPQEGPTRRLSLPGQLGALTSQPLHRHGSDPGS
T2 sequence (Q9Y5S8 whole entry): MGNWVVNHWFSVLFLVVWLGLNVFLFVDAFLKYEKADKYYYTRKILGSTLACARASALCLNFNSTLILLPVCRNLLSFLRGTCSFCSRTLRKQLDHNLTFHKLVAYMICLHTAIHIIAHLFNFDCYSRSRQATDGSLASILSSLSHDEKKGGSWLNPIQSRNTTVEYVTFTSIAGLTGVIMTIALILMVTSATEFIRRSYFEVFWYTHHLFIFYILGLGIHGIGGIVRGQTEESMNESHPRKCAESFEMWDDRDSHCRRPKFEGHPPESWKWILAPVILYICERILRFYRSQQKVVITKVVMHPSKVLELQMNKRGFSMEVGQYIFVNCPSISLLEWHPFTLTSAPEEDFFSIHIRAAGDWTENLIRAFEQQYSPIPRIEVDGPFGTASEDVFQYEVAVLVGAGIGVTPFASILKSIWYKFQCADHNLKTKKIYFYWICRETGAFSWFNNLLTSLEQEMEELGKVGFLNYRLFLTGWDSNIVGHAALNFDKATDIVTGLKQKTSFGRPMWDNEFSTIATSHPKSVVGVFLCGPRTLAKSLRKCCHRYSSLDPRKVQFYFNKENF
Chain of G-protein coupled receptor 183 (P32249 whole entry): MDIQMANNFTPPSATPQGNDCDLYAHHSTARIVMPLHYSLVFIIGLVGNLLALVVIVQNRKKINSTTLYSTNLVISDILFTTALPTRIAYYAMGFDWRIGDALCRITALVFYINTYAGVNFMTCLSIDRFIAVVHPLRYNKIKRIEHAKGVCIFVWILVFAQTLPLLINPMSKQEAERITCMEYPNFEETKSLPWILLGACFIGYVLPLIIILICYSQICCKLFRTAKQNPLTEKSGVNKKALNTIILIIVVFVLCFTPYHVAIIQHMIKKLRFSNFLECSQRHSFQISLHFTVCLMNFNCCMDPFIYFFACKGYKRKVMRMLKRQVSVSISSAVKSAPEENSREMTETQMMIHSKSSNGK
Chain of Bifunctional protein GlmU (P9WMN3 whole entry): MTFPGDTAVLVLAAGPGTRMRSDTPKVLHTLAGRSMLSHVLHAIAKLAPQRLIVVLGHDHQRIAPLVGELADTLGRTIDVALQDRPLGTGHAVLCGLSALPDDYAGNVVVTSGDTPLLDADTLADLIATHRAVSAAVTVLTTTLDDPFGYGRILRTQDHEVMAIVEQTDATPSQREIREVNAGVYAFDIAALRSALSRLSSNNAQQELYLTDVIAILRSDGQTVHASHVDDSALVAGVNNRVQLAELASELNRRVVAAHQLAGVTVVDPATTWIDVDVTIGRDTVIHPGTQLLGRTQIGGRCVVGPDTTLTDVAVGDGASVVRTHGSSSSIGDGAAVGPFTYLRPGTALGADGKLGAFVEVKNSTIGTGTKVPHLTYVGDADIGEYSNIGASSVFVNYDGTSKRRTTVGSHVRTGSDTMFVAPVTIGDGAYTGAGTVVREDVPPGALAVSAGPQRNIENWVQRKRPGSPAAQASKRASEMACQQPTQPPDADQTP
Chain of 5-hydroxytryptamine receptor 1A (P08908 whole entry): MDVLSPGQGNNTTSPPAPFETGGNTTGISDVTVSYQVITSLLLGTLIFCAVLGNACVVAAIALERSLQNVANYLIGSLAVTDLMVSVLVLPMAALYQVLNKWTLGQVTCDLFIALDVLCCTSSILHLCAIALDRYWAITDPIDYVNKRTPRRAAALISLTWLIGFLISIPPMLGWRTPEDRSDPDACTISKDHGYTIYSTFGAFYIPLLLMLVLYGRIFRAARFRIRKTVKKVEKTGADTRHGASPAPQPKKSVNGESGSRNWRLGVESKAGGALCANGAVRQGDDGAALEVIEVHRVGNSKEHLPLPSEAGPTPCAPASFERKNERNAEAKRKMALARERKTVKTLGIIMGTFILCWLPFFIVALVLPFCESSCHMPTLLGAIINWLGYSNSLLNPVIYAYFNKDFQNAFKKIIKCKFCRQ
Chain of Ephrin type-A receptor 4 (Q03137 whole entry): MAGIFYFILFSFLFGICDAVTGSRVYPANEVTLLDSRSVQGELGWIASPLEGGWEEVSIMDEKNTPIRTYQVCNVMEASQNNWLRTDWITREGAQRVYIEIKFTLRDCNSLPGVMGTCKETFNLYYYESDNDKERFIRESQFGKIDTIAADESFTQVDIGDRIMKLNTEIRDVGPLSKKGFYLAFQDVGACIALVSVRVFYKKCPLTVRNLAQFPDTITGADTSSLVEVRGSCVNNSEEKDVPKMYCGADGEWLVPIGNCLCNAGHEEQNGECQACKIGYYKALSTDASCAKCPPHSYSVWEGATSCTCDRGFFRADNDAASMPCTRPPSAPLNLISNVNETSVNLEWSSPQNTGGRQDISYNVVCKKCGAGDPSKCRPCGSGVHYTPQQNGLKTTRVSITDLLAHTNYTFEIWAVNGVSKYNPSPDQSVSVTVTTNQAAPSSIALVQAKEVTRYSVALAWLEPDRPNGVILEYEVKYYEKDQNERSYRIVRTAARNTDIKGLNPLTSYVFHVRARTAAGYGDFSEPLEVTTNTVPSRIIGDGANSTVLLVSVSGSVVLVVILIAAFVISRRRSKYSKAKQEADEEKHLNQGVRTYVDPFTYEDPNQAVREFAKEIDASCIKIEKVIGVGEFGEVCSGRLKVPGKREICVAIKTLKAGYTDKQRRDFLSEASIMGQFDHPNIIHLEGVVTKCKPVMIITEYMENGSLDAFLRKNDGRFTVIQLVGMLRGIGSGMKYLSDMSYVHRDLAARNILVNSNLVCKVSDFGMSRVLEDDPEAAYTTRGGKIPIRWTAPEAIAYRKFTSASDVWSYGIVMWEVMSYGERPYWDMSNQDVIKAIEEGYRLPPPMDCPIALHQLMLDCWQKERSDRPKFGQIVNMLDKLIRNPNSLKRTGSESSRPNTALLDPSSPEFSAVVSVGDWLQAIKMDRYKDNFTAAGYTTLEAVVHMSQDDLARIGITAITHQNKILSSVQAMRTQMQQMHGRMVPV
Chain of Nonstructural protein 1 (Q194T2 whole entry): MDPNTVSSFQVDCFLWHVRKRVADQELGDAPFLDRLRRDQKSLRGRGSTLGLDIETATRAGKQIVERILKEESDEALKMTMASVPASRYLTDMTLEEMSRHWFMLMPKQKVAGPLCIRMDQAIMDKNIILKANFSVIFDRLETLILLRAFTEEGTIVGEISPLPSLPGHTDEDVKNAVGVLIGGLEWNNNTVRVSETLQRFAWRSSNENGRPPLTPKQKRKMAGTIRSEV
Chain of Photoreceptor-specific nuclear receptor (Q9Y5X4 whole entry): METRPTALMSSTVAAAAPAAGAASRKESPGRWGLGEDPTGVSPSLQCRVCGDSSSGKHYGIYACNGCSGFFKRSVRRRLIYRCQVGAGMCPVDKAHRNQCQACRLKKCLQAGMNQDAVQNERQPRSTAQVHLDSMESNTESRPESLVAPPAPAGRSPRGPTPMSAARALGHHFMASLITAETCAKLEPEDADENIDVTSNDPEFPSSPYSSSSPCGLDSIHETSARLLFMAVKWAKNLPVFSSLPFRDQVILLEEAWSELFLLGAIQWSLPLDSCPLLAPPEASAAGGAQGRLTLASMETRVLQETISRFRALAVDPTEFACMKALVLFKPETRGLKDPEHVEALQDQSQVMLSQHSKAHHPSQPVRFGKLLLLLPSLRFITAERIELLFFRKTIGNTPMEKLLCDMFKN

The term IC50 denotes the concentration at which inhibition is half-maximal. As for `CCCCCCCCCCCCCCCCCCOP(=O)([O-])OC1CC[N+](C)(C)CC1` [PERIFOSINE], the IC50 in [1] is 0.852 µM (active); in experiment [2], 2.1 µM (active); in experiment [3], 3.17 µM (active); in [4] it was > 20 µM (inactive); in experiment [5], 2.36 µM (active); in experiment [6] it was 6.9 µM (inactive). The results for the IC50 in experiment [7] and in experiment [8] were > 20 µM (inactive) and 5.79 µM (inactive), respectively.
On to `O=C(/C=C/c1ccccc1C(F)(F)F)N1CCN(S(=O)(=O)c2ccc(Br)cc2)CC1`, for which the IC50 in experiment [9] is 0.31 µM (active).
For the compound `Fc1ccc(CNc2nc3ccccc3n3cnnc23)cc1`, the IC50 in experiment [10] was > 50 µM (not active); in [11], 1.42 µM (active); in [12], 2.69 µM (active).
The term AC50 denotes the concentration giving half of the maximal activity seen. As for `COc1ccc2c3c([nH]c2c1)[C@@H](CO)N(C(=O)Nc1ccc(F)cc1)CC31CN(Cc2ccccc2OC)C1`, the AC50 in experiment [13] is 3.7 µM (active); in experiment [14] it was 9.77 µM (active).
Take `Cc1cc(Cl)ccc1NC(=S)NNC(=S)Nc1ccc(F)cc1`: the IC50 in experiment [15] is 0.96 µM (active); in experiment [16] it was 0.67 µM (active).
In general, EC50 refers to the midpoint of the concentration-response curve. As to `Cc1ccc(C(=O)Nc2nc(-c3ccccn3)cs2)o1`, the EC50 in experiment [17] was 17.9 µM (active); in experiment [18], > 150 µM (not active); in [19] it was > 150 µM (not active). Moreover, in experiment [20], the IC50 is 10.1 µM (active). Moreover, the AC50 is 29.1 µM (active) in experiment [21] and > 52 µM (inactive) in experiment [22].
With `O=C(O)c1cc(Cl)ccc1Nc1nc2cc(Cl)ccc2o1`, the EC50 was 107 µM (not active) in [23] and 11.7 µM (active) in experiment [24].
Take `O=C1/C(=C\c2ccco2)SC(=S)N1Cc1ccccc1`: the IC50 in [25] is 3.21 µM (active).
As a reminder, the CC50 is the concentration at which the toxic effect on the cells reaches its halfway point. Consider `Cn1cc([N+](=O)[O-])c(C(=O)Nc2ccn(Cc3c(F)c(F)cc(F)c3F)n2)n1`, for which, in experiment [26], the CC50 was 20.8 µM (active).
As to `CC(C)S(=O)(=O)C1=NSC2=NC(=O)/C(=C\c3ccc(-c4cccc(C(=O)O)c4)o3)C(=N)N21`, the IC50 in experiment [27] is 13.5 µM (active). Besides, in experiment [28], the AC50 was 8.1 µM (active).
`COc1cc(CN2CCN(c3cccc(C)c3C)CC2)cc(OC)c1O`: the figures for the EC50 in [29] and in [30] were > 195 µM (not active) and > 50 µM (not active), respectively.
`Cc1nc(CS(=O)(=O)c2ccc(Cl)cc2)sc1C(=O)O`: the IC50 in [31] is 12.1 µM (not active).

The values are drawn from ChEMBL document CHEMBL1201862, “PubChem BioAssay data set” (2004).
